{"source": "ChEMBL document CHEMBL1201862", "about": "“PubChem BioAssay data set” (2004)", "key": {"[1]": {"molecular_target": "Alkaline phosphatase, placental type (Homo sapiens, UniProt P05187)", "sequence (P05187 whole entry)": "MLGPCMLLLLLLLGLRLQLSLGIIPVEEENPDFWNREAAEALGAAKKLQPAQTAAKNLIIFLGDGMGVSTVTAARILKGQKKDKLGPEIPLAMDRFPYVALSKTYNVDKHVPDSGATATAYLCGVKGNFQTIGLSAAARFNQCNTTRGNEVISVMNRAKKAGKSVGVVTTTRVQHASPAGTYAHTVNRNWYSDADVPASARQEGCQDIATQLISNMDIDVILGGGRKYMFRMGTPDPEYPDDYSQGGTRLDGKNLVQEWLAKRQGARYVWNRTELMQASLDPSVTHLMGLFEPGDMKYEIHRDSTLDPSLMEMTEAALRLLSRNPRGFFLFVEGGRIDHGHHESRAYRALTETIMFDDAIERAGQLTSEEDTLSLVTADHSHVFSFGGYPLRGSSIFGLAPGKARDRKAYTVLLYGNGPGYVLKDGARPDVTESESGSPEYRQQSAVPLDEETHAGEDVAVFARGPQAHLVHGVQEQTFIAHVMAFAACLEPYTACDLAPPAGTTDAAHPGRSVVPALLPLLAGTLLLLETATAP", "test": "human placental alkaline phosphatase inhibition – biochemical, luminescence, confirmation (AID 1512)", "format": "functional"}, "[2]": {"test": "HGIII-sPLA2 enzyme inhibition potency – biochemical, QFRET, IC50, dose response (AID 743457);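 also: green fluorescence rise as the enzyme cleaves BODIPY PC-A2 in liposomes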"}, "Mucolipin-3": {"molecular_target": "T1, Mucolipin-3 (Homo sapiens, UniProt Q8TDD5)", "T1 sequence (Q8TDD5 whole entry)": "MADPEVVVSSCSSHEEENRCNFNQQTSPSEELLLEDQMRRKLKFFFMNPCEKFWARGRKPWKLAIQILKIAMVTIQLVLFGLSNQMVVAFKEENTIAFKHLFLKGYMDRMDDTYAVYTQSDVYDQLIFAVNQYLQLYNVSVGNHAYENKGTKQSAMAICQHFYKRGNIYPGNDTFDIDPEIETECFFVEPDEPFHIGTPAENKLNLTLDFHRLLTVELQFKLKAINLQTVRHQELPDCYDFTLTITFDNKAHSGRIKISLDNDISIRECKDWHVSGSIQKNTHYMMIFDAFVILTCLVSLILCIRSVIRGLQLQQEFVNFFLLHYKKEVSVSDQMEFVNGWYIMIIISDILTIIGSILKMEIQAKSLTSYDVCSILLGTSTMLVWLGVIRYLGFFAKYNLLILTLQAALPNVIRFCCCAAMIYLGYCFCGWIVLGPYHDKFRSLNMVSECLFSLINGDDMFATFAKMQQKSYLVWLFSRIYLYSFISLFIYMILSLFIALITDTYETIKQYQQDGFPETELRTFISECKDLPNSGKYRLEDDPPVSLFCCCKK", "test": "Fluorescence counterscreen assay for […] agonists: dose response cell-based high-throughput screening assay to identify agonists of the transient receptor potential channel ML3 (TRPML3). [Related pubchem assays: 1424, 1448 ]", "format": "functional"}, "Ion channel NompC": {"molecular_target": "Ion channel NompC (Danio rerio, UniProt Q7T1G6)", "sequence (Q7T1G6 whole entry)": "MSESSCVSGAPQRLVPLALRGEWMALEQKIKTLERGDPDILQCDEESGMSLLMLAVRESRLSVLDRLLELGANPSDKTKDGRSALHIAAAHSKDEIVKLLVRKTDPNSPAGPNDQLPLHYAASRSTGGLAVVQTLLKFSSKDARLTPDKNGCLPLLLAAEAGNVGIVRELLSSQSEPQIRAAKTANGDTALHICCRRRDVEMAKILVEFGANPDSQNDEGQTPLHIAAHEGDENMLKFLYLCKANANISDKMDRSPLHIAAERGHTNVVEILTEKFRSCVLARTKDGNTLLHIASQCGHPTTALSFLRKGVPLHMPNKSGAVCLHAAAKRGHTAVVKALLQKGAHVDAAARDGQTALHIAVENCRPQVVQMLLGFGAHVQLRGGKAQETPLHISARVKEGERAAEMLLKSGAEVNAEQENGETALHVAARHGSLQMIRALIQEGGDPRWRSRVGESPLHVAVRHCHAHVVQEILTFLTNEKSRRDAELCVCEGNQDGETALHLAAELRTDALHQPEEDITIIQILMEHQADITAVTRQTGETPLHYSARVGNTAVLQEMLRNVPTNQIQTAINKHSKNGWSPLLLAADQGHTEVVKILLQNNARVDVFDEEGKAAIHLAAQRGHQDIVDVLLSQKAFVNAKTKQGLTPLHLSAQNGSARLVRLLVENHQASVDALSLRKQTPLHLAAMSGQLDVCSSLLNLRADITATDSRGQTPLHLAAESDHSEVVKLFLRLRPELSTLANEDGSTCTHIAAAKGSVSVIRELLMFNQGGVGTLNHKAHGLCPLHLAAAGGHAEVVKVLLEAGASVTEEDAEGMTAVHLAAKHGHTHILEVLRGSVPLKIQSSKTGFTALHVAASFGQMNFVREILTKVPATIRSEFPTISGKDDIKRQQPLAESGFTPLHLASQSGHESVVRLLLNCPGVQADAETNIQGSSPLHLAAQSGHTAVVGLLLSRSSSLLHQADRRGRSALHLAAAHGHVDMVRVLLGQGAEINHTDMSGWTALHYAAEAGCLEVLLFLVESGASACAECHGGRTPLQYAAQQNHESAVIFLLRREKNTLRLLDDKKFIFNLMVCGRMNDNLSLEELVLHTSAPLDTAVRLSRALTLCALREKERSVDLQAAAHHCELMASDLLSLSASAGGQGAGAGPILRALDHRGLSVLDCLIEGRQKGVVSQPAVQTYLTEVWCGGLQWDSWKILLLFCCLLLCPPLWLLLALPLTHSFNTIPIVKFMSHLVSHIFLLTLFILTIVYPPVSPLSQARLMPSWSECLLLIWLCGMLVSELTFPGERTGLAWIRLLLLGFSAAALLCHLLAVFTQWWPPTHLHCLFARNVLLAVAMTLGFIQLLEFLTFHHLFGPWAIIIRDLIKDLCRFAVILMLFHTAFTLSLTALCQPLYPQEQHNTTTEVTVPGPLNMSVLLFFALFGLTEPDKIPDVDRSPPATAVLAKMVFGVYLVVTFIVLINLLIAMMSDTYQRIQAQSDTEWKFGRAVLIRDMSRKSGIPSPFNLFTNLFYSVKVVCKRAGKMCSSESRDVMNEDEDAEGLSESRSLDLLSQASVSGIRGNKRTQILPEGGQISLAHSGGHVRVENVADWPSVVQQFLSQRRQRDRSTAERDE", "test": "Dose response cell-based high-throughput screening assay for agonists of the transient receptor potential channel N1 (TRPN1). [Related pubchem assays (depositor defined):AID1424, AID1448]", "format": "functional"}}, "note": "The source made the active and inactive calls.", "data": [{"compound": "CCN=C(S)NN=C(S)NCc1ccccc1", "values": [{"measurement": "IC50", "setting": "[1]", "result": "> 100 µM (inactive)"}, {"measurement": "IC50", "setting": "[2]", "result": "> 122 µM (inactive)"}]}, {"compound": "CC(C)S(=O)(=O)c1csc(NC(=O)Nc2ccc(Cl)cc2)c1", "values": [{"measurement": "EC50", "setting": "Mucolipin-3", "result": "> 29.9 µM (not active)"}, {"measurement": "EC50", "setting": "Ion channel NompC", "result": "> 29.9 µM (inactive)"}]}]}
